In EP0054589B1, “Organic phosphoric acid ester derivatives, a process for preparing the same and insecticidal, miticidal or nematocidal compositions containing the same” (priority 1980, dated 1982):

How the values were obtained:
Cotton = test: Phytotoxicity on various crops; assay type: in vivo; parameters: key: Symbol — indicates that no toxicity was observed; conditions: 500 ppm sprayed; checked visually after 10 days
In short: (§1)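 Plants were sprayed with an aqueous dilution of an emulsifiable concentrate at 500 ppm of active ingredient, then kept under greenhouse conditions. Injury was assessed by eye ten days later.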

Kidney Bean = test: Phytotoxicity on various crops; assay type: in vivo; parameters: key: Symbol — indicates that no toxicity was observed; conditions: 500 ppm sprayed; checked visually after 10 days
In short: as §1

Green Pepper = test: Phytotoxicity on various crops; assay type: in vivo; parameters: key: Symbol — indicates that no toxicity was observed; conditions: 500 ppm sprayed; checked visually after 10 days
In short: as §1

Tea = test: Phytotoxicity on various crops; assay type: in vivo; parameters: key: Symbol — indicates that no toxicity was observed; conditions: 500 ppm sprayed; checked visually after 10 days
In short: as §1

egg plant = test: Phytotoxicity on various crops; assay type: in vivo; parameters: key: Symbol — indicates that no toxicity was observed; conditions: 500 ppm sprayed; checked visually after 10 days
In short: as §1

Cucumber = test: Phytotoxicity on various crops; assay type: in vivo; parameters: key: Symbol — indicates that no toxicity was observed; conditions: 500 ppm sprayed; checked visually after 10 days
In short: as §1

Cabbage = test: Phytotoxicity on various crops; assay type: in vivo; parameters: key: Symbol — indicates that no toxicity was observed; conditions: 500 ppm sprayed; checked visually after 10 days
In short: as §1

Tomato = test: Phytotoxicity on various crops; assay type: in vivo; parameters: key: Symbol — indicates that no toxicity was observed; conditions: 500 ppm sprayed; checked visually after 10 days
In short: as §1

Beet = test: Phytotoxicity on various crops; assay type: in vivo; parameters: key: Symbol — indicates that no toxicity was observed; conditions: 500 ppm sprayed; checked visually after 10 days
In short: as §1

Rice = test: Phytotoxicity on various crops; assay type: in vivo; parameters: key: Symbol — indicates that no toxicity was observed; conditions: 500 ppm sprayed; checked visually after 10 days
In short: as §1

Apple = test: Phytotoxicity on various crops; assay type: in vivo; parameters: key: Symbol — indicates that no toxicity was observed; conditions: 500 ppm sprayed; checked visually after 10 days
In short: as §1

tobacco cutworm = test: Insecticidal effect on tobacco cutworm (cabbage leaf dip); assay type: in vivo, Prodenia litura; conditions: after 48 hours, 25°C
In short: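 Cabbage leaves dipped in water-diluted emulsifiable concentrate (two formulations, tests A and B) and air-dried were fed to 3rd-instar tobacco cutworm larvae at 25°C. Percent mortality scored after 48 hours; 3 replicates of 30 insects per compound.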

diamond back moth = test: Insecticidal effect on diamond-back moth (cabbage leaf dip); assay type: in vivo, Plutella xylostella; conditions: 100 ppm, after 72 hours, 25°C
In short: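 Cabbage leaves dipped 10 s in water-diluted emulsifiable concentrate at set concentration, air-dried; thirty 3rd-instar diamond-back moth larvae per cup held at 25°C. Percent mortality scored after 72 h, three replicates per treatment.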

smaller tea tortrix = test: Insecticidal effect on smaller tea tortrix (apple leaf dip); assay type: in vivo; conditions: Adoxophyes orana, foliar; Table 9; 100 ppm; after 72 hours, 25°C; wettable powder as Formulation Example 5; read-out: Percent Mortality
Protocol: Leaves of an apple tree were dipped into a dilute water suspension of a wettable powder prepared as described in Formulation Example 5. After drying in air, the leaves were charged in a 60 ml volume cup made of vinyl chloride resin, and […] 3rd-instar larvae of smaller tea tortrix were put in each cup. The cups were capped and kept at 25°C. After 72 hours, the number of the surviving insects and the dead insects were recorded to determine percent mortality. In each treatment, 3 cups and 30 insects were used in total.

[1] = Table 3, 500 ppm, emulsifiable concentrate as Formulation Example 1
[2] = Table 7, emulsifiable concentrate as Formulation Example 1

Row | SMILES | Phytotoxicity: Cotton (Cotton) | Phytotoxicity: Kidney Bean (Kidney Bean) | Phytotoxicity: Green Pepper (Green Pepper) | Phytotoxicity: Tea (Tea) | Phytotoxicity: Egg Plant (egg plant) | Phytotoxicity: Cucumber (Cucumber) | Phytotoxicity: Cabbage (Cabbage) | Phytotoxicity: Tomato (Tomato) | Phytotoxicity: Beet (Beet) | Phytotoxicity: Rice (Rice) | Phytotoxicity: Apple (Apple) | Percent Mortality (%) (tobacco cutworm; [1]) | Percent Mortality (%) (diamond back moth; [2]) | mortality at 100 ppm (smaller tea tortrix) [%] | Percent Mortality (%) (tobacco cutworm; Table 4, 100 ppm, emulsifiable concentrate as Formulation Example 3) | Percent Mortality (%) (diamond back moth; Table 8, emulsifiable concentrate as Formulation Example 4)
1 | CCCSP(=O)(OC)Oc1ccc2c(c1)OC(C)=CC2(C)C (centres unmarked) [Compound No. 1] | — | — | — | — | — | — | — | — | — | — | — | 100 | 100 | 100 |  | 
2 | CCCSP(=O)(OCC)Oc1ccc2c(c1)OC(C)(C)C=C2C (centres unmarked) [Compound No. 20, O-ethyl-S-propyl-0-(2,2,4-trimethyl-1,2-benzopyran-7-yl)phosphorothioate] | — | — | — | — | — | — | — | — | — | — | — | 100 | 100 |  | 100 | 100
3 | CCCSP(=S)(OCC)Oc1ccc2c(c1)OC(C)=CC2(C)C (centres unmarked) [Compound No. 10] | — | — | — | — | — | — | — | — | — | — | — | 100 | 100 | 96.7 |  | 
4 | CCCSP(=O)(OCC)Oc1ccc2c(c1)OC(C)=CC2(C)C (centres unmarked) [Compound No. 2, O-ethyl-S-propyl-O-(2,4,4-trimethyl-1,4-benzopyran-7-yl)phosphorothioate] | — | — | — | — | — | — | — | — | — | — | — | 100 | 100 | 100 |  | 
5 | CCCSP(=S)(OC)Oc1ccc2c(c1)OC(C)=CC2(C)C (centres unmarked) [Compound No. 9, 0-methyl-S-propyl-(2,4,4-trimethyl-1,4-benzopyran-7-yl)phosphorodithioate] | — | — | — | — | — | — | — | — | — | — | — | 100 | 100 | 100 |  | 
